In US10543250B2, “Antimicrobial fusion peptides” (Los Angeles Biomedical Research Institute at Harbor-UCLA …, priority 2015, dated 2020):
Entries after “also recorded” stand apart in the source; their conditions may differ.

Tests used:
[1] = tested on: MDRAB clinical isolate HUMC-1; assay: Neutropenic murine model of MDRAB pneumonia; format: in vivo, Acinetobacter baumannii; details: for survival: neutropenic mice, aerosolized MDRAB HUMC-1, treatment for 3d, survival monitored to day 21, peptide 12.5 mg/kg IV qd, imipenem 15 mg/kg IP bid
Protocol: Neutropenic mice (cortisone acetate [250 mg/kg; subQ]+cyclophosphamide [200 mg/kg; IP] on study days-2, +3, and +8) were infected on day 0 (aerosolized; MDRAB clinical isolate HUMC-1; 5×10^8 CFU; lung Cx-positive). Treatment initiated 4 hr or 24 hr post-infection and continued for 3d. Groups:control (PBS); imipenem (15 mg/kg; IP; bid); γ-RP-1 (12.5 mg/kg; IV; qd); γ-RP-1 (12.5 mg/kg; IV; qd). Survival was then monitored to day 21. At end point or 21d, lungs and spleens were cultured. Outcomes were compared by non-parametric analysis. All studies adhered to institutional and AAALAC animal care policies.

MDRAB = assay: Biomatrix assay: efficacy in human blood, plasma or serum; format: cell-based, Acinetobacter baumannii; details: human blood ex vivo
Protocol: Efficacies of RP-1 and γ-RP-1 in human blood, plasma, or serum were assessed. Peptide was added to biomatrix simultaneously with MDRAB (final inoculum 10^5 CFU/ml; peptide range […]; volume 100 μl). Controls were performed using Mueller Hinton broth (MHB; CLSI). Following incubation (constant agitation; 2 h, 37° C.), survival was quantified by culture (n=3) upon blood agar and defined as CFU/ml. Independent minimum, n=2.

[2] = tested on: wide panel of Gram-negative human pathogens; assay: Efficacy against panel of Gram-negative human pathogens at pH 5.5 and 7.5 (Example 4); format: cell-based; details: compared to any other peptide tested
Protocol: The efficacy of RP-1 and γ-RP-1, along with a number of peptide variants and suitable control, was tested against a wide panel of Gram-negative human pathogens.

3D7 P. falciparum = assay: In vitro antimalarial activity; format: cell-based; details: at 12.5 mg/ml after incubation for 96 hour
[3] = tested on: P. berghei ANKA luciferase; assay: In vivo antimalarial efficacy in infected mice; details: 12.5 mg/kg, IV treatment daily for 5 days, compared to chloroquine at the same concentration
Description: FIGS. 15 and 16 show the in vivo antimalarial activity of γ-RP-1 on Luciferase-expressing P. berghei ANKA (FIG. 15: single dose; FIG. 16: double dose). CQ: chloroquine.

[4] = tested on: wide panel of human pathogens; assay: Efficacy of γ-RP-1 variants against panel of human pathogens at pH 5.5 and 7.5 (Example 6); format: cell-based; details: pH 5.5 and 7.5, FIG. 16A-B
Protocol: The efficacy of RP-1 and γ-RP-1, along with a number of peptide variants and suitable control, was tested against a wide panel of human pathogens.
In another experiments, the following peptides were tested.

Peptide pI = format: physicochemical
Protocol: Antimicrobial agents: RP-1 (pI/Mw: 10.82/2162.78 Da) is an 18-amino synthetic peptide derived from PF-4 family kinocidins. γ-RP-1 (pI/Mw: 10.64/4444.5 Da) is a 39-amino synthetic peptide comprising a CXCL4 kinocidin γ-core motif-RP-1 construct. Stock peptides dissolved in sterile ddH2O were diluted in suitable buffers. Antibiotics were purchased as purified powder and re-suspended in PBS per the manufacturer guidelines.

Compound	survival [1]	Total MDRAB burden (CFU) in lungs and spleens, reduction ([1]; as compared to control or imipenem treatments alone)	efficacy vs. MDRAB in a murine model of neutropenic pneumonia ([1]; in vivo)	efficacy in human blood (MDRAB)	efficacy against individual organisms and across the broader panel [2]	in vitro antimalarial effects, dose-response curve (3D7 P. falciparum)	antimalarial activity in vivo [3]	efficacy compared with RP-1 across bacterial species [4]	pI (Peptide pI)
C[C@@H](O)[C@H]1C(=O)N2C(C(=O)O)=C(SCCN=CN)C[C@H]12 [imipenem, reference compound]	16%	–	–	–	–	–	–	–	–
γ-RP-1 (CPTAQLIATLKNGRKICLDLQALYKKFKKKLLKSLKRLG)	72%	> 2 log CFU	significant efficacy	significant efficacy; also recorded: greater efficacy	overall best efficacy	excellent IC50 curve	moderate antimalarial activity	higher efficacy than RP-1	10.64
